Measured values taken from paper PMC12211128, “Safety, tolerability, pharmacokinetic and pharmacodynamic effects of the muscarinic M1 positive allosteric modulator VU0467319 for Alzheimer’s disease: a single ascending-dose study in healthy participants” (Alzheimer's Research & Therapy, 2025).

Tests used:
healthy participants [1] = assay: Spatial selective attention test (SSAT); assay type: in vivo, human; details: for SSAT Alerting Cost / SSAT Reorienting Cost: mean (SD)
Text: A version of the spatial selective attention test (SSAT; [33]) was used to assess the ability of participants to disengage attention and shift to a new target. Participants were asked to press a button corresponding to the side of the screen on which a stimulus appeared. The outcome variables of the task are the reaction time effects related to the ability of participants to anticipate a target when there is an ambiguous cue compared to there being no cue at all (Alerting effect: no cue– neutral cue); and the ability of participants to shift their attention between congruent and incongruent stimuli (Reorienting effect: invalid cue– valid cue).
(§1) Cognitive data: In this exploratory analysis, each outcome variable of the cognitive data was examined in a mixed model analysis of variance with one between-subjects factor of VU319 dose (0, 60, 120, 240, 400, 600 mg) and a within-subjects factor of testing session (pre-dose vs. post-dost administration). Post-hoc analysis compared each of the VU319 dose cohorts against the placebo group. Because the participants were healthy adults with normal cognitive function, we considered effects between no reductions in function to small improvement (d = 0.0–0.20) to be a positive result. For the food effect study, only the participants who received VU319 were examined due to the disproportionately small placebo group (n = 2). A within-subjects ANOVA including food condition (fasted/fed) and testing session (pre-dose vs. post-dose administration) was performed on each outcome variable.
A version of the spatial selective attention test (SSAT; (Posner, 1980)) was used to assess the ability of participants to disengage attention and shift to a new target. Participants were asked to press a button corresponding to the side of the screen on which a stimulus appeared. A central diamond was placed in between serving as a fixation point. Cues consisted of a 200-ms darkening of one side of the diamond depicting an arrowhead pointing to one of the peripheral boxes. The cue was followed by a target appearing for 100-ms in one of the boxes. To prevent temporal orienting, we used two randomly occurring cue–target intervals (400 and 700-ms). The targets were black diamonds that appeared in either the left or right boxes. In most trials, the cue validly predicted the target, however some cues were invalid, that is they pointed in the opposite direction of the target. On some trials, both sides of the diamond darkened, resulting in an ambiguous or neutral cue in which the participants were not able to prepare a specific hand to respond. […] The task consisted of 112 trials, with 64 trials (57%) with valid cues, and 16 trials (14.3%) each for the invalid, neutral or no cues conditions. The outcome variables of the task are the reaction time effects related to the ability of participants to anticipate a target when there is an ambiguous cue compared to there being no cue at all (Alerting effect: no cue – neutral cue); and the ability of participants to shift their attention between congruent and incongruent stimuli (Reorienting effect: invalid cue – valid cue).

healthy participants [2] = assay: Selective Reminding Task (SRT); assay type: in vivo, human; details: for SRT Delayed Recall / SRT Immediate Recall / SRT Recall Consistency / SRT Recall Failure: mean (SD)
Text: The Selective Reminding Task (SRT; [36]) was used to test immediate and delayed episodic memory. Participants were read a list of 16 words and must immediately recall the list across eight trials, then again after a 20-minute delay. The outcome measures were the SRT total immediate recall across the eight trials, recall consistency as the number of words correctly recalled on two sequential trials, recall failure as the number of words not recalled on two sequential trials, and the delayed recall after the 20-min delay.
as §1
The Selective Reminding Task (SRT; (Buschke & Fuld, 1974)) was used to test immediate and delayed episodic recall. Participants were read a list of 16 words and must immediately recall the list across 8 trials. […] Upon completing the immediate recall portion of the SRT and after a 20‐minute delay, participants were asked to complete a single delayed recall trial. SRT total immediate recall was analyzed using the number of correctly recalled words across trials 1–8, total immediate recall consistency was analyzed using the number of words correctly recalled on two sequential trials across trials 1–8, SRT total immediate recall failure was analyzed using the number of words not recalled on two sequential trials across trials 1–8, and total delayed recall was analyzed using the number of words correctly recalled after a 20-min delay.

[3] = Food effect study 120 mg, Fasting, Post-Drug
[4] = Food effect study 120 mg, Fasting, Pre-Drug
[5] = Food effect study 120 mg, Fed, Post-Drug
[6] = Food effect study 120 mg, Fed, Pre-Drug

Compound: Cn1cc2c(-c3cc(F)c(CN4Cc5ncccc5C4=O)c(F)c3)cccc2n1 [VU319]
- SSAT Alerting Cost (healthy participants [1]; [3]): 25.8 (59.97) ms
- SSAT Reorienting Cost (healthy participants [1]; [3]): 49.55 (35.68) ms
- SSAT Alerting Cost (healthy participants [1]; [4]): 60.4 (53.4) ms
- SSAT Reorienting Cost (healthy participants [1]; [4]): 52.15 (24.83) ms
- SSAT Alerting Cost (healthy participants [1]; [5]): 113.15 (181.48) ms
- SSAT Reorienting Cost (healthy participants [1]; [5]): 49.45 (32.65) ms
- SSAT Alerting Cost (healthy participants [1]; [6]): 54.1 (45.3) ms
- SSAT Reorienting Cost (healthy participants [1]; [6]): 56.75 (38.19) ms
- SSAT Alerting Cost (healthy participants [1]; SAD study, 60 mg, Post-Drug): 59.58 (43) ms
- SSAT Reorienting Cost (healthy participants [1]; SAD study, 60 mg, Post-Drug): 55.25 (34.49) ms
- SSAT Alerting Cost (healthy participants [1]; SAD study, 60 mg, Pre-Drug): 53.67 (39.48) ms
- SSAT Reorienting Cost (healthy participants [1]; SAD study, 60 mg, Pre-Drug): 43.58 (31.92) ms
- SSAT Alerting Cost (healthy participants [1]; SAD study, 120 mg, Post-Drug): 44.25 (22.86) ms
- SSAT Reorienting Cost (healthy participants [1]; SAD study, 120 mg, Post-Drug): 20.33 (32.95) ms
- SSAT Alerting Cost (healthy participants [1]; SAD study, 120 mg, Pre-Drug): 62.75 (45) ms
- SSAT Reorienting Cost (healthy participants [1]; SAD study, 120 mg, Pre-Drug): 10.17 (18.88) ms
- SSAT Alerting Cost (healthy participants [1]; SAD study, 240 mg, Post-Drug): 58.83 (38.04) ms
- SSAT Reorienting Cost (healthy participants [1]; SAD study, 240 mg, Post-Drug): 39.67 (33.04) ms
- SSAT Alerting Cost (healthy participants [1]; SAD study, 240 mg, Pre-Drug): 34.83 (27.3) ms
- SSAT Reorienting Cost (healthy participants [1]; SAD study, 240 mg, Pre-Drug): 27.92 (29.28) ms
- SSAT Alerting Cost (healthy participants [1]; SAD study, 400 mg, Post-Drug): 44.92 (26.61) ms
- SSAT Reorienting Cost (healthy participants [1]; SAD study, 400 mg, Post-Drug): 31.25 (18.61) ms
- SSAT Alerting Cost (healthy participants [1]; SAD study, 400 mg, Pre-Drug): 59.75 (24.51) ms
- SSAT Reorienting Cost (healthy participants [1]; SAD study, 400 mg, Pre-Drug): 22.17 (25) ms
- SSAT Alerting Cost (healthy participants [1]; SAD study, 600 mg, Post-Drug): 19.5 (41.26) ms
- SSAT Reorienting Cost (healthy participants [1]; SAD study, 600 mg, Post-Drug): 31.33 (15.75) ms
- SSAT Alerting Cost (healthy participants [1]; SAD study, 600 mg, Pre-Drug): 26.08 (37.44) ms
- SSAT Reorienting Cost (healthy participants [1]; SAD study, 600 mg, Pre-Drug): 20.92 (11.57) ms
- SSAT reorienting effect, effect of dose (healthy participants [1]; SAD study, both p > 0.3): no effect of dose, nor a dose by time interaction
- SSAT, effect of food condition or time (healthy participants [1]; food effect study, 120 mg): no effect of either food condition or time
- SRT Delayed Recall (healthy participants [2]; [3]): 11.3 (3.97)
- SRT Immediate Recall (healthy participants [2]; [3]): 88.9 (19.83)
- SRT Recall Consistency (healthy participants [2]; [3]): 55.7 (26.22)
- SRT Recall Failure (healthy participants [2]; [3]): 10.2 (9.74)
- SRT Delayed Recall (healthy participants [2]; [4]): 11.5 (3.69)
- SRT Immediate Recall (healthy participants [2]; [4]): 86.6 (17.61)
- SRT Recall Consistency (healthy participants [2]; [4]): 51.1 (24.64)
- SRT Recall Failure (healthy participants [2]; [4]): 9.4 (8.54)
- SRT Delayed Recall (healthy participants [2]; [5]): 10.9 (3.92)
- SRT Immediate Recall (healthy participants [2]; [5]): 88.9 (20.45)
- SRT Recall Consistency (healthy participants [2]; [5]): 53.4 (27.22)
- SRT Recall Failure (healthy participants [2]; [5]): 8.3 (10.58)
- SRT Delayed Recall (healthy participants [2]; [6]): 11.2 (3.33)
- SRT Immediate Recall (healthy participants [2]; [6]): 88.7 (13.59)
- SRT Recall Consistency (healthy participants [2]; [6]): 54 (18.33)
- SRT Recall Failure (healthy participants [2]; [6]): 8 (6.11)
- SRT Delayed Recall (healthy participants [2]; SAD study, 60 mg, Post-Drug): 8.83 (3.55)
- SRT Immediate Recall (healthy participants [2]; SAD study, 60 mg, Post-Drug): 71.67 (14.95)
- SRT Recall Consistency (healthy participants [2]; SAD study, 60 mg, Post-Drug): 35.33 (18.32)
- SRT Recall Failure (healthy participants [2]; SAD study, 60 mg, Post-Drug): 19.83 (9.37)
- SRT Delayed Recall (healthy participants [2]; SAD study, 60 mg, Pre-Drug): 9 (3.52)
- SRT Immediate Recall (healthy participants [2]; SAD study, 60 mg, Pre-Drug): 79.83 (13.18)
- SRT Recall Consistency (healthy participants [2]; SAD study, 60 mg, Pre-Drug): 44 (22.93)
- SRT Recall Failure (healthy participants [2]; SAD study, 60 mg, Pre-Drug): 13.5 (4.46)
- SRT Delayed Recall (healthy participants [2]; SAD study, 120 mg, Post-Drug): 9.5 (5.86)
- SRT Immediate Recall (healthy participants [2]; SAD study, 120 mg, Post-Drug): 84 (19.55)
- SRT Recall Consistency (healthy participants [2]; SAD study, 120 mg, Post-Drug): 49.33 (25.15)
- SRT Recall Failure (healthy participants [2]; SAD study, 120 mg, Post-Drug): 12.5 (10.78)
- SRT Delayed Recall (healthy participants [2]; SAD study, 120 mg, Pre-Drug): 10.17 (5.42)
- SRT Immediate Recall (healthy participants [2]; SAD study, 120 mg, Pre-Drug): 84.67 (20.24)
- SRT Recall Consistency (healthy participants [2]; SAD study, 120 mg, Pre-Drug): 51.67 (27.6)
- SRT Recall Failure (healthy participants [2]; SAD study, 120 mg, Pre-Drug): 13 (9.76)
- SRT Delayed Recall (healthy participants [2]; SAD study, 240 mg, Post-Drug): 9 (2.45)
- SRT Immediate Recall (healthy participants [2]; SAD study, 240 mg, Post-Drug): 80.67 (13.65)
- SRT Recall Consistency (healthy participants [2]; SAD study, 240 mg, Post-Drug): 41.5 (16.11)
- SRT Recall Failure (healthy participants [2]; SAD study, 240 mg, Post-Drug): 10.83 (10.83)
- SRT Delayed Recall (healthy participants [2]; SAD study, 240 mg, Pre-Drug): 10.67 (1.86)
- SRT Immediate Recall (healthy participants [2]; SAD study, 240 mg, Pre-Drug): 87.33 (11.38)
- SRT Recall Consistency (healthy participants [2]; SAD study, 240 mg, Pre-Drug): 54.33 (13.31)
- SRT Recall Failure (healthy participants [2]; SAD study, 240 mg, Pre-Drug): 10.83 (7.73)
- SRT Delayed Recall (healthy participants [2]; SAD study, 400 mg, Post-Drug): 7.83 (3.87)
- SRT Immediate Recall (healthy participants [2]; SAD study, 400 mg, Post-Drug): 70.83 (16.03)
- SRT Recall Consistency (healthy participants [2]; SAD study, 400 mg, Post-Drug): 33.33 (18.24)
- SRT Recall Failure (healthy participants [2]; SAD study, 400 mg, Post-Drug): 20 (11.15)
- SRT Delayed Recall (healthy participants [2]; SAD study, 400 mg, Pre-Drug): 8.83 (4.79)
- SRT Immediate Recall (healthy participants [2]; SAD study, 400 mg, Pre-Drug): 76.33 (24.51)
- SRT Recall Consistency (healthy participants [2]; SAD study, 400 mg, Pre-Drug): 42.33 (29.85)
- SRT Recall Failure (healthy participants [2]; SAD study, 400 mg, Pre-Drug): 19 (15.66)
- SRT Delayed Recall (healthy participants [2]; SAD study, 600 mg, Post-Drug): 8.67 (4.8)
- SRT Immediate Recall (healthy participants [2]; SAD study, 600 mg, Post-Drug): 85.83 (21.7)
- SRT Recall Consistency (healthy participants [2]; SAD study, 600 mg, Post-Drug): 51 (27.8)
- SRT Recall Failure (healthy participants [2]; SAD study, 600 mg, Post-Drug): 10.67 (12.58)
- SRT Delayed Recall (healthy participants [2]; SAD study, 600 mg, Pre-Drug): 11.83 (1.94)
- SRT Immediate Recall (healthy participants [2]; SAD study, 600 mg, Pre-Drug): 91.17 (11.81)
- SRT Recall Consistency (healthy participants [2]; SAD study, 600 mg, Pre-Drug): 59.83 (13.39)
- SRT Recall Failure (healthy participants [2]; SAD study, 600 mg, Pre-Drug): 8.17 (5.27)
- SRT four outcome measures, effect of dose (healthy participants [2]; SAD study, all p > 0.2): did not show a significant effect of dose, nor dose by time
- SRT performance, effect of food or time (healthy participants [2]; food effect study, 120 mg): no impact of food or time
